Values after ≈ are worked out from the molar mass of the structure shown. Active and inactive are the calls of the source. No cut-off for these calls is given here.
test system: KB; experiment: Cytotoxicity against human KB cells; assay type: functional, cell-based

SMILES | IC50 [µg/mL] | Activity
COC(=O)CC[C@@]1(C)[C@@H](C(C)(C)O)C[C@@H](OC(=O)[C@H](O)C(C)C)[C@@]2(C)C3=CC[C@@H]([C@H]4CO[C@H](C=C(C)C)C4)[C@]3(C)CC[C@H]12 [ARGENTINIC ACID B METHYL ESTER] | 2 (≈ 3.32 µM) | –
CC[C@@H](C)[C@@H](O)C(=O)O[C@@H]1C[C@]2(C)C(=CC[C@H]2[C@H]2CO[C@H](C=C(C)C)C2)[C@@]2(C)[C@H]1[C@@](C)(CCC(=O)OC)[C@@H](C(C)(C)O)C[C@H]2OC(=O)[C@H](O)C(C)C [ARGENTINIC ACID F METHYL ESTER] | 2 (≈ 2.73 µM) | –
CC[C@@H](C)[C@@H](O)C(=O)O[C@@H]1C[C@]2(C)C(=CC[C@H]2[C@H]2CO[C@H](C=C(C)C)C2)[C@@]2(C)[C@H]1[C@@](C)(CCC(=O)OC)[C@@H](C(C)(C)O)C[C@H]2OC(=O)[C@H](O)[C@H](C)CC [ARGENTINIC ACID G METHYL ESTER] | 2.5 (≈ 3.35 µM) | –
C/C=C(\C)[C@@H](O)C(=O)O[C@@H]1C[C@H](C(C)(C)O)[C@](C)(CCC(=O)OC)[C@H]2[C@H](OC(=O)[C@H](O)[C@H](C)CC)C[C@]3(C)C(=CC[C@H]3[C@H]3CO[C@H](C=C(C)C)C3)[C@@]21C [ARGENTINIC ACID D METHYL ESTER] | 1 (≈ 1.34 µM) | –
C/C=C(\C)[C@@H](O)C(=O)O[C@@H]1C[C@H](C(C)(C)O)[C@](C)(CCC(=O)O)[C@H]2CC[C@]3(C)C(=CC[C@H]3[C@H]3CO[C@H](C=C(C)C)C3)[C@@]21C | – | inactive
C/C=C(\C)[C@@H](O)C(=O)O[C@@H]1C[C@H](C(C)(C)O)[C@](C)(CCC(=O)O)[C@H]2[C@H](OC(=O)[C@H](O)[C@H](C)CC)C[C@]3(C)C(=CC[C@H]3[C@H]3CO[C@H](C=C(C)C)C3)[C@@]21C | – | inactive
C/C=C(\C)[C@@H](O)C(=O)O[C@@H]1C[C@H](C(C)(C)O)[C@](C)(CCC(=O)OC)[C@H]2CC[C@]3(C)C(=CC[C@H]3[C@H]3CO[C@H](C=C(C)C)C3)[C@@]21C [ARGENTINIC ACID C METHYL ESTER] | 2 (≈ 3.25 µM) | –
CC[C@@H](C)[C@@H](O)C(=O)O[C@@H]1C[C@]2(C)C(=CC[C@H]2[C@H]2CO[C@H](C=C(C)C)C2)[C@@]2(C)[C@H]1[C@@](C)(CCC(=O)O)[C@@H](C(C)(C)O)C[C@H]2OC(=O)[C@H](O)[C@H](C)CC | – | inactive
CC[C@@H](C)[C@@H](O)C(=O)O[C@@H]1C[C@]2(C)C(=CC[C@H]2[C@H]2CO[C@H](C=C(C)C)C2)[C@@]2(C)[C@H]1[C@@](C)(CCC(=O)O)[C@@H](C(C)(C)O)C[C@H]2OC(=O)[C@H](O)C(C)C | – | inactive
CC[C@@H](C)[C@@H](O)C(=O)O[C@@H]1C[C@H](C(C)(C)O)[C@](C)(CCC(=O)OC)[C@H]2CC[C@]3(C)C(=CC[C@H]3[C@H]3CO[C@H](C=C(C)C)C3)[C@@]21C [ARGENTINIC ACID A METHYL ESTER] | 2 (≈ 3.24 µM) | –
CC(C)=C[C@@H]1C[C@@H]([C@@H]2CC=C3[C@@]4(C)[C@H](CC[C@]32C)[C@@](C)(CCC(=O)O)[C@@H](C(C)(C)O)C[C@H]4OC(=O)[C@H](O)C(C)C)CO1 | – | inactive
C/C=C(\C)[C@@H](O)C(=O)O[C@@H]1C[C@H](C(C)(C)O)[C@](C)(CCC(=O)O)[C@H]2[C@H](OC(=O)[C@H](O)C(C)C)C[C@]3(C)C(=CC[C@H]3[C@H]3CO[C@H](C=C(C)C)C3)[C@@]21C | – | inactive
CC[C@@H](C)[C@@H](O)C(=O)O[C@@H]1C[C@H](C(C)(C)O)[C@](C)(CCC(=O)O)[C@H]2CC[C@]3(C)C(=CC[C@H]3[C@H]3CO[C@H](C=C(C)C)C3)[C@@]21C | – | inactive
C/C=C(\C)[C@@H](O)C(=O)O[C@@H]1C[C@H](C(C)(C)O)[C@](C)(CCC(=O)OC)[C@H]2[C@H](OC(=O)[C@H](O)C(C)C)C[C@]3(C)C(=CC[C@H]3[C@H]3CO[C@H](C=C(C)C)C3)[C@@]21C [ARGENTINIC ACID E METHYL ESTER] | 3.5 (≈ 4.79 µM) | –
C/C=C(/C)[C@@H](O)C(=O)O[C@@H]1C[C@H](C(C)(C)O)[C@](C)(CCC(=O)O)[C@H]2[C@H](OC(=O)[C@H](O)/C(C)=C/C)C[C@]3(C)C(=CC[C@H]3[C@H]3CO[C@H](C=C(C)C)C3)[C@@]21C | – | inactive
C/C=C(/C)[C@@H](O)C(=O)O[C@@H]1C[C@H](C(C)(C)O)[C@](C)(CCC(=O)OC)[C@H]2[C@H](OC(=O)[C@H](O)/C(C)=C/C)C[C@]3(C)C(=CC[C@H]3[C@H]3CO[C@H](C=C(C)C)C3)[C@@]21C [ARGENTINIC ACID H METHYL ESTER] | 2 (≈ 2.69 µM) | –

Reference: ChEMBL document CHEMBL1144052, “Cytotoxic 3,4-secoapotirucallanes from Aaglaia argentea bark” (J Nat Prod, 1999)
